In patent US20140336616A1, “DELIVERY DEVICE” (INTERNATIONAL SCIENTIFIC PTY LTD, priority 2012, published 2014):

Tested on: excised human skin
Test: Sodium fluorescein dye penetration into excised human skin in Franz cells, with LSCM imaging and image analysis
Type: in vitro ADME
Conditions: 300 μL NaF 1 mg/mL in saline, 15 minutes, 34-35° C.; images from 73 μm deep
From the text: Microneedle Treatment: A piece of gauze was folded in half 4 times and then the skin sample placed on top. In-situ skin tension was approximately simulated by stretching the skin over the gauze and pinning in place. A pre-prepared microneedle impact applicator was then used to apply the microneedle to the skin at speed (approximately 3 m·s−1). This applicator consisted of a housing, a spring-loaded plunger and the banks of laser cut microneedles (two 3-needle banks gave a total of 6 microneedles). The banks were mounted into the plunger which was then drawn back, loading the spring, and held in place using a pin. Upon removal of the pin, the plunger accelerated towards the skin, driving the microneedles through the stratum corneum and into the viable epidermis and dermis.
Dye incubation in Franz Cells: A Franz cell was prepared by applying vacuum grease to the sealing surfaces of the receptor and donor. […]
Laser scanning confocal microscopy (LSCM): To prepare the samples for LSCM, a cut was made around the imprint made by the Franz cell. […] The LSCM machine was then switched to the fluorescent mode with 488 nm excitation and 550±88 nm emission band was recorded. […]
Image analysis: The image data names were encoded to blind the image analysis researcher. […] Image J (NIH, Bethesda, Md.) was then used to quantify fluorescence intensity and dye positive areas. […]

O=C1OC2(c3ccc(O)cc3Oc3cc(O)ccc32)c2ccccc21 [NaF, Sodium Fluorescein]
NaF dye penetration / fluorescence pattern (LSCM, visual): no penetration of the dye beyond the stratum corneum
